Measured values as given in ChEMBL document CHEMBL3638788, “Benzoxazines, benzothiazines, and related compounds having NOS inhibitory activity” (2013).

Tests used:
[1] = target: Nitric oxide synthase 1 (Homo sapiens, UniProt P29475); test: (§1) Enzyme Assay: Primary stock solutions of test compounds at a concentration of 6 mM were prepared from the 2 to 5 mg powder. The primary stock solutions of each test compound were prepared freshly in distilled water on the day of study to obtain a final concentration of 6 mM. For determination of IC50 values, 12 test compound concent rations were prepared as 3-fold serial dilutions. Concentration range of test compound utilized for nNOS were 0.001 to 300 μM and for eNOS were 0.003 to 10 00 μM. The vehicle of the test compound or inhibitor was used as blank control. For non-specific activity, 100 μM L-NMMA was used. Runs using the IC50 concentration of L-NAME were done in parallel as controls. All incubations are performed in duplicate.
Sequence of Nitric oxide synthase 1 (P29475 whole entry): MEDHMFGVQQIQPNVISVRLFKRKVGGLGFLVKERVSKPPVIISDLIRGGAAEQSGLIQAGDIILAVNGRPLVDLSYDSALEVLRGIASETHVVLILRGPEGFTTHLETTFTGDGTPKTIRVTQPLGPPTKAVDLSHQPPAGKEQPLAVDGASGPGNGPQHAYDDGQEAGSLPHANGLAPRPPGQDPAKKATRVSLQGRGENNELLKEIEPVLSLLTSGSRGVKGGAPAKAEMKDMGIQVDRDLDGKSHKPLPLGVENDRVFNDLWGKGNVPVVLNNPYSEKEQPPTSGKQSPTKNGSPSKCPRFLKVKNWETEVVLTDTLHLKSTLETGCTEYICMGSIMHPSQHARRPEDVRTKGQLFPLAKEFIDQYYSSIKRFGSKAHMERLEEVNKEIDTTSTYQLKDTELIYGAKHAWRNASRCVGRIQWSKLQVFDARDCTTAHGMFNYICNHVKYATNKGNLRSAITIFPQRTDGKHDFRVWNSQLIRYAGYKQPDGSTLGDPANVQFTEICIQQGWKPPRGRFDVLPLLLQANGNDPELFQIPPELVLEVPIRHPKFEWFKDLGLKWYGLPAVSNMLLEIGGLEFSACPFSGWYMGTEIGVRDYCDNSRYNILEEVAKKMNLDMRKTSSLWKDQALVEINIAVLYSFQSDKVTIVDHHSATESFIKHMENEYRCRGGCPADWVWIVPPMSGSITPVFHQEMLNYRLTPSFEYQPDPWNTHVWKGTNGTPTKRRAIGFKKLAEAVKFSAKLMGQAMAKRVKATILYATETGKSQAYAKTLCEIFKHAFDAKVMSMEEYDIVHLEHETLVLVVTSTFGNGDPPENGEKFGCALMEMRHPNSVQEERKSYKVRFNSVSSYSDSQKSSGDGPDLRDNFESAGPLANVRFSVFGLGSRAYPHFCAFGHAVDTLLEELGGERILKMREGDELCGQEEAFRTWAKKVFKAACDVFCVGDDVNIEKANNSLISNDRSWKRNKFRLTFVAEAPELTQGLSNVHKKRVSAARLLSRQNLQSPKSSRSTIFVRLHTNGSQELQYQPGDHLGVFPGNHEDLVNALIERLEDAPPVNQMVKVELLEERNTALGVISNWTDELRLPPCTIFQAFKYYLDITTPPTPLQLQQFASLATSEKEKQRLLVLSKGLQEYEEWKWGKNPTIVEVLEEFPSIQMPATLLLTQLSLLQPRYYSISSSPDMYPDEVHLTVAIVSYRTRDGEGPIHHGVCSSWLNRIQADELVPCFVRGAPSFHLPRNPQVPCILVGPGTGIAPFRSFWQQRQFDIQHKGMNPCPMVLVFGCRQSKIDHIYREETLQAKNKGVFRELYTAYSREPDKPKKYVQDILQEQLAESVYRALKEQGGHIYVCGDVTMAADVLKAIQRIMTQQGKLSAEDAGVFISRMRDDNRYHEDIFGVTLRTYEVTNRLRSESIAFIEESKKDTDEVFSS

[2] = target: T1, Nitric oxide synthase 3 (Homo sapiens, UniProt P29474); test: as §1
T1 sequence (P29474 whole entry): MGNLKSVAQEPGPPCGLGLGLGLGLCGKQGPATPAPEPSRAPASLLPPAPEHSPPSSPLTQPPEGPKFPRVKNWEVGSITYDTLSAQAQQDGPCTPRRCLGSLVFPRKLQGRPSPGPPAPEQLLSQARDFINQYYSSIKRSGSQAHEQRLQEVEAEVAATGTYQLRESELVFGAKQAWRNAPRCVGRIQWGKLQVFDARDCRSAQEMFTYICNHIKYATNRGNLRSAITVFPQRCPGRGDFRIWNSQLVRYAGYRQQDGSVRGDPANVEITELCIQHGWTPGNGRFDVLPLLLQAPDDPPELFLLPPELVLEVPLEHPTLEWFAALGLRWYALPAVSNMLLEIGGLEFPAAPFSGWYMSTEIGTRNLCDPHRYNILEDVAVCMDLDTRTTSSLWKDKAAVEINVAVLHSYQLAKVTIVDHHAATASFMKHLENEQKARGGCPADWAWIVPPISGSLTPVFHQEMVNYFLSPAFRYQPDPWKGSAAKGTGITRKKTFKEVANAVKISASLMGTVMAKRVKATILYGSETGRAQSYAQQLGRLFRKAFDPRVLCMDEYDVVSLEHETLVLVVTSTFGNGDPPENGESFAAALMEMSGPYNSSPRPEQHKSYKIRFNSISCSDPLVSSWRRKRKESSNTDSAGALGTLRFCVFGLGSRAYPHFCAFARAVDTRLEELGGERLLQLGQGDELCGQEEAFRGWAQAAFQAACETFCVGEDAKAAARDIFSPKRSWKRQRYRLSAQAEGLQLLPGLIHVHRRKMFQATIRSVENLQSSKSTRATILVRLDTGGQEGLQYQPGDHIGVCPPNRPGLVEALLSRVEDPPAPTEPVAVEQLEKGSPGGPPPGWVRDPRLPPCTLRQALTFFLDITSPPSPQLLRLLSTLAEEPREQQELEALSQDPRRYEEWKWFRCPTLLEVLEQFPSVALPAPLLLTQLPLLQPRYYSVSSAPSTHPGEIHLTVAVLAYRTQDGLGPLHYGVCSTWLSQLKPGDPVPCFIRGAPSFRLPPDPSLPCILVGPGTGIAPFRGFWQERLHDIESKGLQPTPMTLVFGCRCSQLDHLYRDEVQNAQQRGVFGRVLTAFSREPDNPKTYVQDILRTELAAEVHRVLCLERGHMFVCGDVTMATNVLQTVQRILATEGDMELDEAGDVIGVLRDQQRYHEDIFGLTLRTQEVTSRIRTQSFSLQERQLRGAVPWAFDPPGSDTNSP

[3] = target: Nitric oxide synthase, inducible (Homo sapiens, UniProt P35228); test: Enzyme Assay: Recombinant human inducible NOS (iNOS) was produced in Baculovirus-infected Sf9 cells (ALEXIS). In a radiometric method, NO synthase activity was determined by measuring the conversion of [3H]L-arginine to [3H]L-citrulline. To measure iNOS, 10 uL of enzyme was added to 100 uL of 100 mM HEPES, pH=7.4, containing 1 mM CaCl2, 1 mM EDTA, 1 mM dithiothreitol, 1 uM FMN, 1 uM FAD, 10 uM tetrahydrobiopterin, 120 uM NADPH, and 100 nM CaM. To measure enzyme inhibition, a 15 uL solution of a test substance was added to the enzyme assay solution, followed by a pre-incubation time of 15 min at RT. The reaction was initiated by addition of 20 uL L-arginine containing 0.25 uCi of [3H] arginine/mL and 24 uM L-arginine. The total volume of the reaction mixture was 150 uL in every well.
Sequence of Nitric oxide synthase, inducible (P35228 whole entry): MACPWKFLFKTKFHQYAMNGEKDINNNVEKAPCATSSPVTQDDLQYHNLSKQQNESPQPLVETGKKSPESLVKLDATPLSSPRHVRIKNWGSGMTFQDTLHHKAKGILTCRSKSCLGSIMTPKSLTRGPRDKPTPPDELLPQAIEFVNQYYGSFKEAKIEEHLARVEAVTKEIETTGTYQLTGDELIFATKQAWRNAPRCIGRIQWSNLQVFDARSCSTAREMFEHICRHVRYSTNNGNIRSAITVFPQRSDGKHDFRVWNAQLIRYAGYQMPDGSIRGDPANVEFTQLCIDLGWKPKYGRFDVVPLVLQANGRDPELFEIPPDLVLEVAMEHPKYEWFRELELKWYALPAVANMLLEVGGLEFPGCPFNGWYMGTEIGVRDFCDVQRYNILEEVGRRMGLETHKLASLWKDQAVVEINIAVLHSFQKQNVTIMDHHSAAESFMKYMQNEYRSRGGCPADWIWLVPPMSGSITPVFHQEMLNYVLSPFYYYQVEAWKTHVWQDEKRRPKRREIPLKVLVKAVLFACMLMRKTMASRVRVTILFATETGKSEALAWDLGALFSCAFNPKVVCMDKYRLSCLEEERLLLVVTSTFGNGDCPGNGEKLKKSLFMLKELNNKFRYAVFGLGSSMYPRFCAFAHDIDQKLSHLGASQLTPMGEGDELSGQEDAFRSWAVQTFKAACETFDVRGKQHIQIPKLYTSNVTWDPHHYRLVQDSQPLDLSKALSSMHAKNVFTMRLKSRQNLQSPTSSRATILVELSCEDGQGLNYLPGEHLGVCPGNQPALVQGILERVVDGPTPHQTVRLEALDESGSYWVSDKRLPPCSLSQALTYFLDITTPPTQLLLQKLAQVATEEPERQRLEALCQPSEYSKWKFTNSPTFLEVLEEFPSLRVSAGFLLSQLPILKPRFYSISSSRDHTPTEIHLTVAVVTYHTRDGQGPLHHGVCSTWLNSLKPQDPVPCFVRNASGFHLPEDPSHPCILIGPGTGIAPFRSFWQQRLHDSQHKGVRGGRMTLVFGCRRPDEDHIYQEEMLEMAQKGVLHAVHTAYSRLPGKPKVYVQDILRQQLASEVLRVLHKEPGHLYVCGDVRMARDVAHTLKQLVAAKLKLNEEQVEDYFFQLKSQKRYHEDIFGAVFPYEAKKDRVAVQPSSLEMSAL

IC50 [1] [µM] | IC50 [2] [µM] | IC50 [3] [µM] | Structure (SMILES)
2.08 | 87.2 | > 100 | CN1CCCC1CCN1C(=O)COc2cc(NC(=N)c3cccs3)ccc21 (stereo not given)
0.43 | – | 10.6 | CN1CCCC1CCN1CCOc2cc(/N=C(\N)c3cccs3)ccc21 (stereo not given)
